No end group written: not given here.
Legend:
Assay type in all cases: cell-based, human
platelets [1] = test: Platelet adhesion to fibronectin-coated plates in flow after peptide pre-treatment of platelets; conditions: platelets (PRP) pre-incubated with peptide 2 mM, 20 minutes
Procedure: (§1) Platelet adhesion experiments were performed using the Vena8 flow chamber described above. Fibrinogen and fibronectin (Sigma) were dissolved in PBS to a final concentration of 200 mcg/ml. Channels of the Vena8 chips were incubated at room temperature in a humidified chamber for 2 hours with the protein solution, autologous plasma, or PBS alone. The channels were washed with 5x the volume RPMI. Platelet-rich-plasma was then perfused through the protein-coated channel at the indicated shear-stress, held constant. For each channel, still images were acquired exactly 90 seconds into the experiment at 4 pre-defined low power fields located along the flow path (fields were centered at 2500, 7500, 12500, and 17500 microns from the start point of infusion).
(§2) Some experiments involved pre-treating platelet-rich-plasma with protein fragments prior to infusion through the channels. Small RGD peptides, containing the amino-acid sequence Arg-Gly-Asp-Ser; DRG peptides, contain the amino-acid sequence Ser-Asp-Gly-Arg; or fragment 400-411 of fibrinogen, containing the amino-acid sequence His-His-Leu-Gly-Gly-Ala-Lys-Gln-Ala-Gly-Asp-Val, were incubated at a concentration of 2 mM with PRP for 20 minutes at room temperature. The PRP was then perfused through the channels as previously described.

[2] = system: monocyte-platelet interactions; test: Monocyte-platelet interactions in flow (receptor-ligand studies); conditions: wall shear stress 0.5 dyne/cm2; relative to P+RGD+ maximum
Procedure: Platelet-coated Vena8 channels were pre-treated with either 40 μg/ml anti-P-selectin (R&D Systems) or 40 μg/ml of an isotype control for 30 minutes at room temperature, then washed with 5× the volume RPMI. Mononuclear cell suspensions were pre-treated with either RGD or DGR peptides at a concentration of 2.5 mM. Video samples lasting 400 frames (26.3 seconds) were recorded 60 seconds after commencement of flow using a lower power field of view spanning 400 microns and centered at 7500 microns from the flow start point.

platelets [3] = test: Platelet adhesion to fibrinogen-coated plates in flow after peptide pre-treatment of platelets; conditions: platelets (PRP) pre-incubated with peptide 2 mM, 20 minutes
Procedure: as §1, §2

GILZ [4] = test: siRNA-mediated knockdown of GILZ in MoDC; conditions: siRNA experiments, ELISA
Procedure: Silencer select pre-designed and validated GILZ siRNA (Invitrogen), with off-target prediction algorithms, was used to knockdown GILZ expression. Mo-DC were transfected using Lipofectamine RNAiMAX Reagent (Invitrogen). RNAi duplex and lipofectamine reagent were incubated together for 20 min, then added to MoDC cultures and incubated for 2 hr at 37° C. and 5% CO2. Transfected MoDC were treated in an identical fashion as described for the MoDC/lymphocyte co-cultures. MoDC were also transfected with scramble siRNA.
RNA was isolated from CD11c MoDC using QIAShredder columns (QIAGEN) and the RNeasy Mini Kit (QIAGEN) with on-column Dnase I treatment (QIAGEN). RNA yield and purity were assessed using a NanoDrop ND-1000 spectrophotometer. cDNA was obtained using the High Capacity cDNA Reverse Transcription Kit (Applied Biosystems) in a 96-well thcrmocycicr (MJ Research PTC-200). TaqMan real-time PCR was used to detect transcripts of GILZ, CD80, and CD86. Primers and probes were obtained as pre-designed and validated Taqman Gene Expression Assays (Applied Biosystems). SYBR green real-time PCR (Applied Biosystems) was used to detect transcripts of IL-12, IL-10, IL-6, TNF-alpha, and TGF-β. Primers were designed to span intron junctions using Primer3Plus. Primer melting curves were obtained to confirm a single product. HPRT-1 and GAPDH were used as reference genes. Samples were run in triplicate on a 7500 Real Time PCR System (Applied Biosystems). The delta-delta C(t) method was used to calculate the fold change.
(§3) Culture supernatants were analyzed in a multiplex format utilizing magnetic beads to IL-6, IL-8, IL-10, IL-12p70, TNF-a, RANTES, MCP-1, and MIP-1β (BioRad Laboratories). For siRNA experiments, supernatants were analyzed with enzyme-linked immunosorbent assay (ELISA) kits for IL-10 (R&D Systems) and IL-12p70 (Enzo Life Science). All samples and standards were run in duplicate and analyzed using the LUMINEX 200 (LUMINEX), or the BioTek EL800 (BioTek).

GILZ [5] = test: GILZ mRNA expression in CD11c+ MoDC (real-time PCR); conditions: for GILZ up-regulation, fold change relative to untreated MoDC cultured alone: 24 hr after co-culture/treatment (FIG. 13B)
Procedure: The tubes emitted UVA light ranging from 320 to 400 nm. The UVA irradiance (power, W/m^2) was measured using a photodiode. […] Non-adherent cells (purity: 66.0±4.5% CD3^+) removed during plastic adherence will now be generally referred to as lymphocytes. […] RNA yield and purity were assessed using a NanoDrop ND-1000 spectrophotometer. cDNA was obtained using the High Capacity cDNA Reverse Transcription Kit (Applied Biosystems) in a 96-well thcrmocycicr (MJ Research PTC-200). TaqMan real-time PCR was used to detect transcripts of GILZ, CD80, and CD86. Primers and probes were obtained as pre-designed and validated Taqman Gene Expression Assays (Applied Biosystems). SYBR green real-time PCR (Applied Biosystems) was used to detect transcripts of IL-12, IL-10, IL-6, TNF-alpha, and TGF-β. Primers were designed to span intron junctions using Primer3Plus. Primer melting curves were obtained to confirm a single product. HPRT-1 and GAPDH were used as reference genes. Samples were run in triplicate on a 7500 Real Time PCR System (Applied Biosystems). The delta-delta C(t) method was used to calculate the fold change.

MoDC = test: Cytokine quantification in culture supernatants after LPS stimulation; conditions: for IL-10 to IL-12p70 ratio: after LPS stimulation, untreated MoDC 6.7
Procedure: (§4) Non-adherent cells (purity: 66.0±4.5% CD3^+) removed during plastic adherence will now be generally referred to as lymphocytes. Lymphocytes were treated with 8-MOP (100 ng/mL) and UVA (1 J/cm^2), washed with PBS, and co-cultured in complete media at 37° C. and 5% CO2 with either PUVA-treated or untreated-MoDC in a ratio of 5 or 10 lymphocytes to 1 MoDC. MoDC treated for 24 hr with 100 nM dexamethasone (Sigma) served as the positive control group. After 24 hr, cells were harvested and MoDC were re-purified.
as §3

monocytes = test: Static co-culture of monocytes with platelets (DC differentiation); conditions: platelets activated with thrombin (2 units) vs not activated; 18 hours static culture
Procedure: When overnight culture was required, cells were centrifuged and resuspended in RPMI-1640 medium (GIBCO), supplemented with 15% AB serum (Gemini Bio-Products) to a final concentration of 5×10^6 cells/ml. Cells were cultured overnight for 18 hours in 12-well polystyrene tissue culture plates (2 ml per well) at 37° C. in 5% CO2.
Monoclonal antibodies for immunophenotyping included CD14 (LPS receptor; monocytes), CD11c (integrin subunit; monocytes and DC), HLA-DR (class II MHC molecule), CD83 (DC marker), CD62p (P-selectin; activated platelets), and CD61 (integrin subunit; platelets). Antibodies were obtained from Beckman Coulter (CD14, CD11c, HLADR, CD83) or Sigma (CD62p, CD61) and used at their pre-determined optimal dilutions. Background staining was established with appropriate isotype controls, and immunofluorescence was analyzed using a FC500 flow cytometer (Beckman Coulter). Two-color membrane staining was performed by adding the pre-determined optimal concentrations of both antibodies directly conjugated to FITC or PE and incubating for 20 min at 4° C., followed by washing to remove unbound antibodies. Combined membrane and cytoplasmic staining was performed following manufacturer's instructions for cell fixation and permeabilization (Intraprep kit, Beckman Coulter). […]

platelets [6] = test: Plasma protein influence on platelet adhesion to plates; conditions: plates pre-coated with protein; wall shear stress 0.2 to 6.0 dyne/cm^2
Procedure: as §1

lymphocytes [7] = test: Apoptosis of lymphocytes (Annexin-V/7-AAD)
Procedure: as §4, with “Lymphocytes” for “Non-adherent cells (purity: 66.0±4.5% CD3^+) removed during plastic adherence will now be generally referred to as lymphocytes. Lymphocytes”
(§5) Monoclonal antibodies included HLA-DR, CD80, CD83, CD3, CD86, CD14, CD11c and GILZ. Antibodies were obtained from Beckman-Coulter and eBioscience and were used at their pre-determined optimal dilutions. Apoptosis was assessed using the Annexin-V Apoptosis Detection Kit (eBioscience), with Annexin-V recognizing phosphatidylserine (PS) on the surface of apoptotic cells. 7-AAD substituted for PI as the cell viability dye. Cells displaying an Annexin-V^+/7-AAD^− phenotype were classified as early apoptotic cells, and cells displaying an Annexin-V^+/7-AAD^+ phenotype were classified as late apoptotic cells. Dual membrane and intracytoplasmic staining was performed using the lntraPrep fix and permeabilization kit (Beckman-Coulter). Background staining was established with appropriate isotype and fluorescence minus one controls. Immunofluorescence was analyzed using a FACSCalibur L (BD Biosciences) within 2 hr of fixation with 2% paraformaldehyde. A minimum of 10,000 events were collected for each group.

CD11c+ MoDC = test: Apoptosis of CD11c+ MoDC (Annexin-V/7-AAD); conditions: 24 hr
Procedure: Cultures were incubated with 8-MOP (Uvadex, 20 μg/mL) for 30 min in the dark, and then irradiated with a desktop UVA light box containing a series of 12 linear fluorescent tubes. The tubes emitted UVA light ranging from 320 to 400 nm. The UVA irradiance (power, W/m^2) was measured using a photodiode. Given a measured irradiance and the absorption properties of the various components of the system, it was possible to determine the time (sec) needed to expose the cells to deliver a given dose of UVA radiation (J/cm^2).
as §5

lymphocytes [8] = test: Apoptosis of ECP-processed lymphocytes after overnight incubation; conditions: UVA-activated 8-MOP
[9] = 24 hr after LPS stimulation, multiplex immunoassay
[10] = 100 ng/mL 8-MOP and 1 J/cm^2 UVA, 24 hr

Arg-Gly-Asp-Ser (RGDS; printed: Arg-Gly-Asp-Ser) [RGD peptides]
platelet adhesion to fibronectin-coated plates (platelets [1]): decreased adhesion significantly | short-duration monocyte-platelet interactions (less than 3 seconds) [2]: did not significantly alter | platelet adhesion to fibrinogen-coated plates (platelets [3]): not significantly altered

C[C@@H]1C[C@H]2[C@@H]3CCC4=CC(=O)C=C[C@]4(C)[C@@]3(F)[C@@H](O)C[C@]2(C)[C@@]1(O)C(=O)CO [dexamethasone]
IL-10 to IL-12p70 ratio, non-transfected MoDC (GILZ [4]): 15.3 | IL-10 to IL-12p70 ratio, transfected with GILZ siRNA (GILZ [4]): 3.9 | time after treatment at which GILZ is up-regulated (GILZ [5]; 100 nM dex): 2 h | GILZ up-regulation, fold change relative to untreated MoDC cultured alone (GILZ [5]): 4.29 fold | IL-10 to IL-12p70 ratio (MoDC): 67.7

thrombin
monocyte differentiation (cells expressing DC markers) (monocytes): did not cause a discernible difference

HHLGGAKQAGDV
platelet adhesion to fibronectin-coated plates (platelets [1]): had no effect | platelet adhesion to fibrinogen-coated plates (platelets [3]): significantly decreased

8-methoxypsoralen [8-MOP]
IL-10 to IL-12p70 ratio, non-transfected MoDC (GILZ [4]): 8.4 | IL-10 to IL-12p70 ratio, transfected with GILZ siRNA (GILZ [4]): 2.9 | GILZ up-regulation, fold change relative to untreated MoDC cultured alone (GILZ [5]): 2.78 fold | production of IL-10 (MoDC; [9]): increased production of IL-10 | production of pro-inflammatory cytokines and chemokines (MoDC; [9]): decreased production of all pro-inflammatory cytokines and chemokines tested, except TNF-α and IFN-γ | IL-10 to IL-12p70 ratio (MoDC): 38.7

fibrinogen
platelet adhesion to coated plates in flow (platelets [6]): highest concentrations of platelets adhered

COc1c2occc2cc2ccc(=O)oc12 [8-MOP, 8-methoxypsoralen]
percentage of early apoptotic lymphocytes (lymphocytes [7]; [10]): 44.3% | percentage of late apoptotic lymphocytes (lymphocytes [7]; [10]): 33.7% | time after treatment at which lymphocytes display Annexin-V (lymphocytes [7]; 1 J/cm^2 and 100 ng/mL): 2 h | 8-MOP concentration needed for an effect on GILZ expression (GILZ [5]; 0.5 J/cm^2 UVA): 200 ng/mL | time GILZ remained significantly elevated (GILZ [5]; 8-MOP and UVA light (FIG. 10F)): 72 h | GILZ expression increase, combination of 8-MOP and UVA light (GILZ [5]; 24 hr, relative to untreated MoDC (FIG. 10E)): 5.5 fold | GILZ expression, 8-MOP alone (GILZ [5]; without UVA light, 24 hr (FIG. 10E)): did not effect GILZ expression | percentage of late apoptotic CD11c+ cells (CD11c+ MoDC; 1 J/cm^2, all doses of 8-MOP tested): less than 13% | percentage of late apoptotic CD11c+ cells (CD11c+ MoDC; 2 J/cm^2, all doses of 8-MOP tested): less than 16% | percentage of early apoptotic CD11c+ cells compared to untreated MoDC (CD11c+ MoDC; 2 J/cm^2 and 200 ng/mL): increase | ECP-processed lymphocytes apoptotic (lymphocytes [8]): 99%

From US12364755B2, “Method for obtaining globally activated monocytes” (Transimmune AG, priority 2014, dated 2025)
